Format in all cases: functional, cell-based
Assay [1] has as its target T1, Taste receptor type 2 member 9 (Homo sapiens) (UniProt Q9NYW1).
T1 sequence (whole entry): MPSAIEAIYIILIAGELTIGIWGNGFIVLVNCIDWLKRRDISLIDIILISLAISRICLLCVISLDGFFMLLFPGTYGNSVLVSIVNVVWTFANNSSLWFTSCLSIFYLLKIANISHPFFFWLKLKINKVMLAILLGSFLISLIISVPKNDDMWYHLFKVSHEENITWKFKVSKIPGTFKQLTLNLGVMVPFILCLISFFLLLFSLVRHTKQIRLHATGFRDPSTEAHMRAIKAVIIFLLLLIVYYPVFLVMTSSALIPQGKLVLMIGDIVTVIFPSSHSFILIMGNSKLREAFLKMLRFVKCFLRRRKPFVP
Put plainly: Agonist activity at human TAS2R9 expressed in HEK293T cells co-expressing Galpha15 assessed as increase in intracellular calcium level at 20 mM by Calcium-3 dye based fluorescence assay relative to control.

For assay [2], the target named is T2, Taste receptor type 2 member 60 (Homo sapiens) (UniProt P59551).
T2 sequence (whole entry): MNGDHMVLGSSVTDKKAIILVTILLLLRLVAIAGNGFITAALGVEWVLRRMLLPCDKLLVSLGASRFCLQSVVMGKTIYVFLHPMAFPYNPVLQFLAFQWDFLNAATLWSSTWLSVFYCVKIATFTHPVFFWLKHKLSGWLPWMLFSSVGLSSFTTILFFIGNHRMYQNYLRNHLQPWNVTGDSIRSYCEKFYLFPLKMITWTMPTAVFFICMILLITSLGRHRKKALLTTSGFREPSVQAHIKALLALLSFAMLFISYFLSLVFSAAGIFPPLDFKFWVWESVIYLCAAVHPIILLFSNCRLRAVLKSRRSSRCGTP
Put plainly: Agonist activity at human TAS2R60 expressed in HEK293T cells co-expressing Galpha15 assessed as increase in intracellular calcium level at 20 mM by Calcium-3 dye based fluorescence assay relative to control.

Assay [3] addresses T3, Taste receptor type 2 member 5 (Homo sapiens) (UniProt Q9NYW4).
T3 sequence (whole entry): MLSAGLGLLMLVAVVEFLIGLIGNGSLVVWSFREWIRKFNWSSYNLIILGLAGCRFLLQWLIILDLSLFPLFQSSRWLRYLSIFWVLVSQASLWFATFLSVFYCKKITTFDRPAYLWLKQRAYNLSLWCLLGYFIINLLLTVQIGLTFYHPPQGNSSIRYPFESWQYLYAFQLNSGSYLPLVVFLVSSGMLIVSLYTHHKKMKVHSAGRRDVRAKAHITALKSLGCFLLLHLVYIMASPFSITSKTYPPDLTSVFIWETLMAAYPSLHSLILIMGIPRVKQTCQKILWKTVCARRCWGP
Put plainly: Agonist activity at human TAS2R5 expressed in HEK293T cells co-expressing Galpha15 assessed as increase in intracellular calcium level at 20 mM by Calcium-3 dye based fluorescence assay relative to control.

Assay [4] addresses T4, Taste receptor type 2 member 41 (Homo sapiens) (UniProt P59536).
T4 sequence (whole entry): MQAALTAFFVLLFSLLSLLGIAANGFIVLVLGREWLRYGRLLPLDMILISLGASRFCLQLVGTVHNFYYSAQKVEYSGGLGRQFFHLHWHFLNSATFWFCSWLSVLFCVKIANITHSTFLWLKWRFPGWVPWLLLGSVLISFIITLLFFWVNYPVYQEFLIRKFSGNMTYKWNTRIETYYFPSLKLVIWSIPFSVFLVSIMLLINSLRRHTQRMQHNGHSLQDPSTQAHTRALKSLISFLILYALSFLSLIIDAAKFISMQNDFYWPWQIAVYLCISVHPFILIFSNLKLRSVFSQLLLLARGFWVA
The assay is described as follows: Agonist activity at human TAS2R41 expressed in HEK293T cells co-expressing Galpha15 assessed as increase in intracellular calcium level at 20 mM by Calcium-3 dye based fluorescence assay relative to control.

Assay [5] addresses T5, Taste receptor type 2 member 46 (Homo sapiens) (UniProt P59540).
T5 sequence (whole entry): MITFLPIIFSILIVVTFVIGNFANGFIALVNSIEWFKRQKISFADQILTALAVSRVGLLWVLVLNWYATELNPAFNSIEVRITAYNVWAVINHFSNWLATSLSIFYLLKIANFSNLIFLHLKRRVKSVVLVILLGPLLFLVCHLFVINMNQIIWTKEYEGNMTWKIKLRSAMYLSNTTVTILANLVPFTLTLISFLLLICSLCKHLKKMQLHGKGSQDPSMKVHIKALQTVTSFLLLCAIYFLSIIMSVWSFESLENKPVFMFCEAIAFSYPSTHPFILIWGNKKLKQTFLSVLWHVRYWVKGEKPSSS
Put plainly: Agonist activity at human TAS2R46 expressed in HEK293T cells co-expressing Galpha15 assessed as increase in intracellular calcium level at 20 mM by Calcium-3 dye based fluorescence assay relative to control.

Assay [6] has as its target T6, Taste receptor type 2 member 3 (Homo sapiens) (UniProt Q9NYW6).
T6 sequence (whole entry): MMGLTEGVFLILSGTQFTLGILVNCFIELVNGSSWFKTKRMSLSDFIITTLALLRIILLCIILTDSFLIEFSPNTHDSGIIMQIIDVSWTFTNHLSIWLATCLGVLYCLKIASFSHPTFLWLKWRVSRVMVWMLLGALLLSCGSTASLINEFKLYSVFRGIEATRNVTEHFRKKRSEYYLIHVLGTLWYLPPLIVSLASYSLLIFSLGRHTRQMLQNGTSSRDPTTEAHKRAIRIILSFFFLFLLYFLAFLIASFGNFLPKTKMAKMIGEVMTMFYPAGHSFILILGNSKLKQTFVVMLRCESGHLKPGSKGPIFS
The assay is described as follows: Agonist activity at human TAS2R3 expressed in HEK293T cells co-expressing Galpha15 assessed as increase in intracellular calcium level at 20 mM by Calcium-3 dye based fluorescence assay relative to control.

The target of assay [7] is T7, Taste receptor type 2 member 20 (Homo sapiens) (UniProt P59543).
T7 sequence (whole entry): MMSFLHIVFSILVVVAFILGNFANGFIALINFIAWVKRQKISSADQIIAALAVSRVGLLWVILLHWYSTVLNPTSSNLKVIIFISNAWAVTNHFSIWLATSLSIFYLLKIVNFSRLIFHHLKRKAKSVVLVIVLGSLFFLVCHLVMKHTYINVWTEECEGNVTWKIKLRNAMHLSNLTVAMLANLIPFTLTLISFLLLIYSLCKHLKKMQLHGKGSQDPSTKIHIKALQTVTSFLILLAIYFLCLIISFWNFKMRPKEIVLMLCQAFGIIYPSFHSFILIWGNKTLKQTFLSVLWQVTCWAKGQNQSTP
The assay is described as follows: Agonist activity at human TAS2R49 expressed in HEK293T cells co-expressing Galpha15 assessed as increase in intracellular calcium level at 20 mM by Calcium-3 dye based fluorescence assay relative to control.

As to `[Cl-].[K+]` [POTASSIUM CHLORIDE], the Activity in assay [1] was over 40%; in assay [2] it was over 40%; in assay [3], under 40%; in assay [4] it was under 40%; in assay [5], under 40%; in assay [6], under 40%. In assay [7], the Activity was under 40%.

Turning to `CC1=CC(=O)NS(=O)(=O)O1`, the Activity was over 40% in assay [1]; under 40% in assay [2]; under 40% in assay [3]; under 40% in assay [4]; under 40% in assay [5]; under 40% in assay [6]. In assay [7], the Activity was under 40%.

With `CC(O)C(=O)[O-].[K+]` (stereo unspecified), the Activity in assay [1] is over 40%; in assay [2] it was over 40%; in assay [3] it was under 40%; in assay [4] it was under 40%; in assay [5], over 40%; in assay [6] it was under 40%. In addition, in assay [7], the Activity is under 40%.

Values taken from ChEMBL document CHEMBL4419163, “Assays for identifying compounds that modulate bitter taste” (2014).
